Results on five compounds are retold here after paper PMC4783263 (Molecular pharmaceutics, 2016).

Series [1] has as its system OVCAR-3 (human ovarian adenocarcinoma). As to conditions: 150 mg/kg of ABZ 3 times a week for 4 weeks through IP; cited from earlier work.
Series [2] has as its system SKHEP-1 (human liver adenocarcinoma) xenografts. As to conditions: ABZ in sesame oil, xenografts on the flank of mice; cited from earlier work.
The next series deals with glioblastoma multiforme. As to conditions: daily oral doses (50 and 150 mg/kg) of ABZ tablets mixed with 50% sesame oil; cited from earlier work.
In another series the test system is SK-OV-3 cells. As to conditions: read-out: IC50 on SK-OV-3 cells; ABZ formulated in ethanol; cited from earlier work.
The conditions of series [3]: mice, repeated oral dosing of 30–40 mg/kg/day for 4–90 days; cited from earlier work.
Details of series [4]: species or system Swiss Webster mice. As to conditions: mouse, in vivo; for AUC / Cmax / tmax: 3.2 mg/kg.
For series [5] the following is noted: cited from earlier work.
Series [6] has as its system Salmonella typhimurium TA100. Put plainly: Ames test. As to conditions: TA 100, −S9, 1.5 µg/plate.
Series [7] has as its system Salmonella typhimurium TA1535. Put plainly: Ames test. As to conditions: TA 1535, −S9, 1.5 µg/plate.
The conditions of series [8]: in vivo; cited from earlier work.

In brackets after ≈: the same amount, converted by molar mass. Where two headings read alike, the source gives them in different places.

Turning to `CCCSc1ccc2nc(NC(=O)OC)[nH]c2c1` [ABZ, Albendazole], in series [1], the “malignant ascites (in words)” value is “suppression of malignant ascites was observed”. For the same compound, the “daily oral dose required to see an antitumor effect” value in series [2] was 300 mg/kg. For the same compound, the “mouse survival (in words)” value in the series with glioblastoma multiforme is reported as “moderate improvements in mouse survival”. Besides, the IC50 – broadly, the concentration that gives 50% inhibition – with SK-OV-3 cells is 3.88 µM. The “toxicity (in words)” value in series [3] is given as “no significant signs of toxicity”.

Consider `CCCS(=O)(=O)c1ccc2nc(NC(=O)OC)[nH]c2c1` [ABZSO2, Albendazole sulfone], for which the “Absolute Bioavailability” value in series [4] is given as 81%. In series [4] (ip), the AUC (as a rule, concentration integrated over time) amounted to 2380 ng·h/mL; the Cmax (in general, the highest concentration seen after dosing) amounted to 410 ± 70 ng/mL; the tmax is 2 h. In series [4] (iv), the AUC was found to be 2940 ng·h/mL, the Cmax came to 500 ± 90 ng/mL and the tmax came out at 2 h.

Take `O=C1N2CN3C(=O)N4CN5C(=O)N6CN7C(=O)N8CN9C(=O)N%10CN%11C(=O)N%12CN%13C(=O)N%14CN1C1C2N2CN%15C(=O)N(CN%16C(=O)N(CN%17C(=O)N(CN%18C(=O)N(CN%19C(=O)N(CN%20C(=O)N(CN1C2=O)C%14C%13%20)C%12C%11%19)C%10C9%18)C8C7%17)C6C5%16)C4C3%15` (stereo not shown) [CB[7]]: the “solubility in pure water” value in [5] (reported by Kim) is 20 to 30 mM; in series [5] (reported by Nau), 5 mM (≈ 5.81 mg/mL).

Regarding `[N-]=[N+]=[N-].[Na+]` [Sodium azide, Sodium Azide, reference compound], the “revertant colonies, positive control” value in [6] was “Sodium azide 167 ± 34 colonies”; in series [6] (listed as sodium azide) it was 167 colonies; in series [7], “Sodium azide 232 ± 6 colonies”; in series [7] (listed as sodium azide), 232 colonies.

Take `O=C(O)CCSC[C@H]1O[C@@H]2O[C@H]3[C@H](O)[C@@H](O)[C@@H](O[C@H]4[C@H](O)[C@@H](O)[C@@H](O[C@H]5[C@H](O)[C@@H](O)[C@@H](O[C@H]6[C@H](O)[C@@H](O)[C@@H](O[C@H]7[C@H](O)[C@@H](O)[C@@H](O[C@H]8[C@H](O)[C@@H](O)[C@@H](O[C@H]9[C@H](O)[C@@H](O)[C@@H](O[C@H]1[C@H](O)[C@H]2O)O[C@@H]9CSCCC(=O)O)O[C@@H]8CSCCC(=O)O)O[C@@H]7CSCCC(=O)O)O[C@@H]6CSCCC(=O)O)O[C@@H]5CSCCC(=O)O)O[C@@H]4CSCCC(=O)O)O[C@@H]3CSCCC(=O)O` [sugammadex]: the “effect on QT interval (in words)” value in [8] is listed as “no relevant effects of the compound on QT interval”.
